Source: publication PMC5352234 (International Journal of Nanomedicine, 2017)
Where two headings read alike, the source gives them in different places.

Columns and labels:
[1] = molecular target: T1, PKA (Bos taurus, UniProt P00517); conditions: cited from earlier work
[2] = molecular target: T1, PKA; assay: AuNPs/Fc-peptide electrochemical; conditions: thiolated IP20/MCH gold electrode; Fc-peptide 4 µM or AuNPs 2.4 nM
[3] = Aggregation of unmodified AuNPs by peptide; format: physicochemical; conditions: AuNPs 2.4 nM, IP20 5 µM, PKA (where present) 500 U/mL; UV-Vis, TEM
[4] = substrate/ATP, Biotinylated antiphosphoserine antibody/SA-AuNPs-HRP, ref [19]
[5] = substrate/ATP-S, AuNPs/MWNTs, ref [30]
[6] = substrate/ATP, Zr^4+-DNA-AuNPs network, ref [22]
[7] = substrate/ATP, Fe^3+/H2O2, ref [20]

CALRRASLGW
Detection limit [1, 4]: 1 mU/mL
Linear range [1, 4]: 1–10 mU/mL

CGGALRRASLG
Linear range ([1]; substrate/ATP, Phos-tag-biotin/avidin-HRP, ref [23]): 500–25,000 mU/mL

CLRRASIG
Detection limit [1, 5]: 90 mU/mL
Linear range [1, 5]: 100–1,000 mU/mL

CLRRASLG
Detection limit [1, 6]: 30 mU/mL
Linear range [1, 6]: 30–40,000 mU/mL

Fc-LRRASLG
Detection limit ([1]; substrate/ATP, bis(Zn^2+-dipicolylamine), ref [21]): 100 mU/mL

FcCH2CO-RTGRRNAIHD [Fc-peptide]
DPV signal/peak, single component only (Fc-peptide alone or AuNPs alone) [2]: no DPV peak was observed

LRRASLG
Detection limit ([1]; substrate/biotin-ATP, SA-AuNPs, ref [27]): 10,000 mU/mL

LRRASLGGGGC
Detection limit [1, 7]: 100 mU/mL
Linear range [1, 7]: 100–50,000 mU/mL

RTGRRNAIHD
effect on AuNPs aggregation / color change [3]: responsible for triggering the aggregation of AuNPs
